What was measured:
PC-3 cells = test: Therapeutic efficacy of 177Lu-NeoBOMB1 in PC-3 xenografted mice; format: in vivo, balb c nu/nu mice; conditions: for time to reach a tumor size of 2000 mm^3: 1 week apart, extrapolated growth curves; for animals without any tumor regrowth after a complete response: n=15
Method: Male balb c nu/nu mice were subcutaneously inoculated on the right shoulder with 200 μL 4×10^6 PC-3 cells (American Type Culture Collection) in inoculation medium (⅓ Matrigel high concentration (Corning)+⅔ Hank's balanced salt solution (Thermofisher Scientific)). Four weeks post tumor cell inoculation when an average tumor size of 543+177 mm^3 was reached, animals were divided in four groups: control group (n=10) and therapy group 1-3 (n=15 per group). To determine the efficacy of ^177Lu-NeoBOMB1, animals received either 3 sham injections (control group), 3×30 MBq/300 pmol ^177Lu-NeoBOMB1 (group 1), 3×40 MBq/400 pmol ^177Lu-NeoBOMB1 (group 2) or 3×60 MBq/600 pmol ^177Lu-NeoBOMB1 (group 3) under isoflurane/O2 anesthesia. Injections were administered intravenously and injections were given 1 week apart.
(§1) In both studies, animal weight and/or tumor size was measured bi-weekly. When tumor size was ≥2000 mm^3 or a decrease in animal weight ≥20% within 48 hours was observed, animals were removed from the study. In the efficacy study, animals were followed until the maximum allowed age of 230 days was reached.
The tumor doubling times were determined by fitting an exponential growth function to the tumor volume over time in the control group. In the therapy groups an interval with exponential tumor volume decline was fitted with onset of regrowth after the nadir time. The growth curves were extrapolated beyond the censoring time points for mice with too large tumors (>2000 mm^3) to determine average growth statistics. Tumor growth delay times were individually determined by comparing the times needed to reach the maximum tumor size of 2000 mm^3 with the mean time found in the control group.
Prism software (version 5.01, GraphPad Software) was used for statistical analyses. P values […] were considered statistically significant. The difference in tumor volume growths and delay times for the 4 groups were analyzed with the One-way ANOVA test with Bonferroni's multiple comparison test. Curve fitting was performed according to the least/square fit with the Pearson R^2 to quantify its goodness.

[1] = system: non-tumor bearing balb c nu/nu male mice; test: Kidney and pancreas toxicity of 177Lu-NeoBOMB1 treatment; format: in vivo; conditions: for histopathology of the kidneys: 24 weeks after therapy
Method: To determine the effect of treatment on pancreas and kidney tissue, non-tumor bearing balb c nu/nu male mice received the same treatment as the animals included in the efficacy study. At 2 different time points after the last therapeutic injection (12 weeks and 24 weeks p.i.) animals were euthanized and pancreas and kidney tissue was collected for pathological analysis.
as §1
Pancreatic and kidney tissue collected for pathological analysis was formalin fixed and paraffin embedded. Hematoxylin and eosin staining was performed on […] thick tissue slices using the Ventana Symphony™ H&E protocol (Ventana), to determine differences in tissue structure between the 4 treatment groups. In total 4 tissue slices, […] apart from each other were evaluated of each organ. The hematoxylin and eosin staining's were evaluated by experienced pathologists.

[2] = Dosimetry: estimated absorbed dose to tumor, pancreas and kidneys (RADAR realistic mouse model)
Source text: The RADAR realistic mouse model (Keenan M A, Stabin M G, Segars W P, Fernald M J. RADAR realistic animal model series for dose assessment. J Nucl Med. 2010; 51:471-476) with a weight of 25 g and data from previously published biodistribution and pharmacokinetic studies (Dalm S U, Bakker I L, de Blois E, et al. 68Ga/^177Lu-NeoBOMB1, a Novel Radiolabeled GRPR Antagonist for Theranostic Use in Oncology. J Nucl Med. 2017; 58:293-299) were used to calculate the dose to the tumor, pancreas and kidneys, when animals were treated with 3×30 MBq/300 pmol, […] or 3×60 MBq/600 pmol ^177Lu-NeoBOMB1. The biodistribution data of our previously published paper (Dalm S U, Bakker I L, de Blois E, et al. ^68Ga/^177Lu-NeoBOMB1, a Novel Radiolabeled GRPR Antagonist for Theranostic Use in Oncology. J Nucl Med. 2017; 58:293-299) were fitted with exponential curves to define the time-activity curve in the tumor and organs. The time integrated activities for ^177Lu were obtained by integrating these exponential curves folded with the 177Lu decay curve (T1/2=6.647 d). Absorbed doses per administered activities were obtained by multiplying with the organ S-values from Keenan et al. (Keenan M A, Stabin M G, Segars W P, Fernald M J. RADAR realistic animal model series for dose assessment. J Nucl Med. 2010; 51:471-476) or by using the spherical node S-values (Stabin M G, Konijnenberg M W. Re-evaluation of absorbed fractions for photons and electrons in spheres of various sizes. J Nucl Med. 2000; 41:149-160) for a 340 mg tumor.
An estimation was made of the radioactivity dose to the tumor, pancreas and kidneys after treatment with 3×30 MBq/300 pmol, 3×40 MBq/400 pmol or 3×60 MBq/600 pmol ^177Lu-NeoBOMB1 (See Table 3 below). For this it was assumed that tumor and organ uptake was similar after each injection.

[3] = 3×30 MBq/300 pmol, 1st injection
[4] = 3×30 MBq/300 pmol, 2nd injection
[5] = 3×30 MBq/300 pmol, 3rd injection
[6] = 3×40 MBq/400 pmol, 1st injection
[7] = 3×40 MBq/400 pmol, 2nd injection
[8] = 3×40 MBq/400 pmol, 3rd injection
[9] = 3×60 MBq/600 pmol, 1st injection
[10] = 3×60 MBq/600 pmol, 2nd injection
[11] = 3×60 MBq/600 pmol, 3rd injection

CC(C)CC(CC(C)C)NC(=O)[C@H](Cc1cnc[nH]1)NC(=O)CNC(=O)[C@@H](NC(=O)[C@H](C)NC(=O)[C@H](Cc1c[nH]c2ccccc12)NC(=O)[C@H](CCC(N)=O)NC(=O)[C@@H](Cc1ccccc1)NC(=O)COCC(=O)Nc1ccc(CNC(=O)CN2CCN(CC(=O)O)CCN(CC(=O)O)CCN(CC(=O)O)CC2)cc1)C(C)C [^177Lu-NeoBOMB1, metal not drawn]
therapy efficacy (PC-3 cells; all treatment groups vs control group): effective | Median survival (PC-3 cells; group 1, 3×30 MBq/300 pmol): 82 days | time to reach a tumor size of 2000 mm^3 (PC-3 cells; group 1, 3×30 MBq/300 pmol i.v.): 97 ± 59 days | animals without any tumor regrowth after a complete response (PC-3 cells; group 1, 3×30 MBq/300 pmol): two | Median survival (PC-3 cells; group 2, 3×40 MBq/400 pmol): 89 days | time to reach a tumor size of 2000 mm^3 (PC-3 cells; group 2, 3×40 MBq/400 pmol i.v.): 103 ± 66 days | animals without any tumor regrowth after a complete response (PC-3 cells; group 2, 3×40 MBq/400 pmol): one | Median survival (PC-3 cells; group 3, 3×60 MBq/600 pmol): 99 days | time to reach a tumor size of 2000 mm^3 (PC-3 cells; group 3, 3×60 MBq/600 pmol i.v.): 95 ± 26 days | histopathology of the kidneys, lymphocyte infiltration ([1]; 12 and 24 weeks after last injection, in control as well as treated animals, not related to therapy): small areas with lymphocyte infiltration | histopathology of the pancreas ([1]; H&E, 12 and 24 weeks after last injection): no tissue damage or other abnormalities | animal weight ([1]; all groups, follow-up up to 24 weeks): no critical decrease in weight | histopathology of the kidneys ([1]; group 3 (3×60 MBq/600 pmol), both animals): mild chronic inflammatory response | histopathology of the kidneys ([1]; lowest dose (3×30 MBq/300 pmol), ID: 864, unlikely related to therapy): atrophy and fibrosis were observed in the kidneys of only one animal | decrease in weight within 48 h ([1]; one animal from Group 1 (ID: 869)): less than 10% | Cumulative absorbed dose, Kidney [2, 3]: 1.7 Gy | Cumulative absorbed dose, Pancreas [2, 3]: 7.9 Gy | Cumulative absorbed dose, Tumor [2, 3]: 17 Gy | Cumulative absorbed dose, Kidney [2, 4]: 3.4 Gy | Cumulative absorbed dose, Pancreas [2, 4]: 16 Gy | Cumulative absorbed dose, Tumor [2, 4]: 34 Gy | Cumulative absorbed dose, Kidney [2, 5]: 5.1 Gy | Cumulative absorbed dose, Pancreas [2, 5]: 32 Gy | Cumulative absorbed dose, Tumor [2, 5]: 68 Gy | Cumulative absorbed dose, Kidney [2, 6]: 2.3 Gy | Cumulative absorbed dose, Pancreas [2, 6]: 11 Gy | Cumulative absorbed dose, Tumor [2, 6]: 23 Gy | Cumulative absorbed dose, Kidney [2, 7]: 4.5 Gy | Cumulative absorbed dose, Pancreas [2, 7]: 21 Gy | Cumulative absorbed dose, Tumor [2, 7]: 46 Gy | Cumulative absorbed dose, Kidney [2, 8]: 6.8 Gy | Cumulative absorbed dose, Pancreas [2, 8]: 42 Gy | Cumulative absorbed dose, Tumor [2, 8]: 91 Gy | Cumulative absorbed dose, Kidney [2, 9]: 3.4 Gy | Cumulative absorbed dose, Pancreas [2, 9]: 16 Gy | Cumulative absorbed dose, Tumor [2, 9]: 34 Gy | Cumulative absorbed dose, Kidney [2, 10]: 6.8 Gy | Cumulative absorbed dose, Pancreas [2, 10]: 32 Gy | Cumulative absorbed dose, Tumor [2, 10]: 68 Gy | Cumulative absorbed dose, Kidney [2, 11]: 10 Gy | Cumulative absorbed dose, Pancreas [2, 11]: 64 Gy | Cumulative absorbed dose, Tumor [2, 11]: 137 Gy

Source: patent US20220008566A1, “Pharmaceutical Composition Comprising a Radiolabeled GRPR Antagonist and a Surfactant” (Advanced Accelerator Applications International SA, priority 2018, published 2022)
